Key:
Homo sapiens [1] = species: Homo sapiens; experiment: The drug dependent inhibition of LTB4 biosynthesis in human whole blood (HWB) activated with the ionophore A-23187; format: functional, organism-based
Homo sapiens [2] = species: Homo sapiens; experiment: In vitro inhibition of LTB4 biosynthesis in Ca++ ionophore activated human polymorphonuclear (HPMN) leukocytes.; format: functional
[3] = target: T1, Arachidonate 5-lipoxygenase-activating protein (Homo sapiens, UniProt P20292); experiment: Measuring the affinity of leukotriene synthesis inhibitor for 5-lipoxygenase activating protein by using [125I]L-691831 as radioligand.
T1 sequence (P20292 whole entry): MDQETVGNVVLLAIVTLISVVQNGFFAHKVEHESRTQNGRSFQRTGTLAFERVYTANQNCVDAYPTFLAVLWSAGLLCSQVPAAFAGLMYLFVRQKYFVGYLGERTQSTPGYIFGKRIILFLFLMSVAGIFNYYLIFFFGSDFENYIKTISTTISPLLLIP

[4] = plasma level at 2 hr after administration of the compound; format: ADME, organism-based; settings: rat
[5] = Bioavailability in rat; format: ADME, organism-based; settings: in vivo
Rattus norvegicus [6] = experiment: Compound was evaluated in vivo for its functional activity(in percent) in a hyperreactive rat model of dyspnea; design: concentration or dose not given beside the values
Rattus norvegicus [7] = experiment: In vivo inhibitory activity against LTB4 biosynthesis by rat pleurisy model (3 pre treatment time periods); format: functional
Rattus norvegicus [8] = experiment: In vivo inhibitory activity against LTB4 biosynthesis by rat pleurisy model (6h pre treatment time periods); format: functional
Rattus norvegicus [9] = experiment: In vivo inhibitory activity against LTB4 biosynthesis by rat pleurisy model (3h pre treatment time periods); format: functional
[10] = Plasma level at 2 hr after administration of the compound; format: ADME, organism-based; settings: rat
Rattus norvegicus [11] = experiment: In vivo inhibitory activity against LTB4 biosynthesis by rat pleurisy model (2h pre treatment time period); format: functional
Canis familiaris [12] = experiment: Inhibition of ex vivo urinary leukotriene E4 (LTE4) excretion from A-23,187-challenged dog after intravenous infusion of 2.5 ug/kg/min; format: functional; settings: Canis lupus familiaris, Urine
Canis familiaris [13] = experiment: Inhibition of ex vivo leukotriene B4 (LTB4) in whole blood of A-23,187-challenged dog after intravenous infusion of 2.5 ug/kg/min; format: functional; settings: Canis lupus familiaris
Rattus norvegicus [14] = experiment: In vivo inhibitory activity against LTB4 biosynthesis by rat pleurisy model (6 pre treatment time periods); format: functional
Rattus norvegicus [15] = experiment: In vivo inhibitory activity against LTB4 biosynthesis by rat pleurisy model (1 pre treatment time periods); format: functional
Rattus norvegicus [16] = experiment: In vivo inhibitory activity against LTB4 biosynthesis by rat pleurisy model (v3h pre treatment time periods); format: functional

## CC(C)(C)Sc1c(CC(C)(C)C(=O)O)n(Cc2ccc(Cl)cc2)c2ccc(CCc3ccc4ccccc4n3)cc12
Homo sapiens [1]; Homo sapiens, Blood
  IC50: > 3000 nM
Homo sapiens [2]; Homo sapiens
  IC50: 4 nM
[3]
  IC50: 16 nM

## CC(C)(C)Sc1c(CC(C)(C)C(=O)O)n(Cc2ccc(Cl)cc2)c2ccc(OCc3cnc4ccccc4c3)cc12
[3]
  IC50: 48 nM

## CC(C)(C)Sc1c(CC(C)(C)C(=O)O)n(Cc2ccc(Cl)cc2)c2ccc(OCc3nc4cc(C(F)(F)F)ccc4s3)cc12
Homo sapiens [1]; Homo sapiens, Blood
  IC50: > 3000 nM
Homo sapiens [2]; Homo sapiens
  IC50: 22 nM
[3]
  IC50: 186 nM

## CC(C)(C)Sc1c(CC(C)(C)C(=O)O)n(Cc2ccc(Cl)cc2)c2ccc(OCc3nc4ccccc4s3)cc12
Homo sapiens [1]; Homo sapiens, Blood
  IC50: 260 nM
Homo sapiens [2]; Homo sapiens
  IC50: 3 nM
[3]
  IC50: 2 nM
[4]
  concentration at 2 h: 6 µM
[5]
  bioavailability: 81%
Rattus norvegicus [6]
  Functional activity in dyspnea model: 45%
Rattus norvegicus [7]
  ED50: 0.85 mg/kg

## CC(C)(C)Sc1c(CC(C)(C)C(=O)O)n(Cc2ccc(Cl)cc2)c2ccc(COCc3ccc4ccccc4n3)cc12
Homo sapiens [1]; Homo sapiens, Blood
  IC50: > 3000 nM
Homo sapiens [2]; Homo sapiens
  IC50: > 18 nM
[3]
  IC50: 26 nM

## CC(C)(C)Sc1c(CC(C)(C)C(=O)O)n(Cc2ccc(Cl)cc2)c2c(OCc3ccc4ccccc4n3)cccc12
[3]
  IC50: 1950 nM

## CC(C)(C)Sc1c(CC(C)(C)C(=O)O)n(Cc2ccc(Cl)cc2)c2ccc(OCc3ccccn3)cc12
Homo sapiens [1]; Homo sapiens, Blood
  IC50: 130 nM
Rattus norvegicus [8]
  ED50: 0.09 mg/kg
Homo sapiens [2]; Homo sapiens
  IC50: 2 nM
[3]
  IC50: 3 nM
[4]
  concentration at 2 h: 9 µM
Rattus norvegicus [9]
  ED50: 0.3 mg/kg
[5]
  bioavailability: 48%
Rattus norvegicus [6]
  Functional activity in dyspnea model: 77%

## CC(C)(C)Sc1c(CC(C)(C)C(=O)O)n(Cc2ccc(Cl)cc2)c2ccc(OCc3ccc4cc(F)ccc4n3)cc12
Homo sapiens [1]; Homo sapiens, Blood
  IC50: 880 nM
Homo sapiens [2]; Homo sapiens
  IC50: 2 nM
[3]
  IC50: 2 nM

## Cc1nc2ccc(COc3ccc4c(c3)c(SC(C)(C)C)c(CC(C)(C)C(=O)O)n4Cc3ccc(Cl)cc3)cc2s1
Homo sapiens [1]; Homo sapiens, Blood
  IC50: > 3000 nM
Homo sapiens [2]; Homo sapiens
  IC50: 6 nM
[3]
  IC50: 40 nM

## CCCC(Oc1ccc2c(c1)c(SC(C)(C)C)c(CC(C)(C)C(=O)O)n2Cc1ccc(Cl)cc1)c1ccc2ccccc2n1 (centres undefined)
Homo sapiens [1]; Homo sapiens, Blood
  IC50: > 3000 nM
Homo sapiens [2]; Homo sapiens
  IC50: > 52 nM
[3]
  IC50: 350 nM

## Cc1nc(COc2ccc3c(c2)c(SC(C)(C)C)c(CC(C)(C)C(=O)O)n3Cc2ccc(Cl)cc2)cs1
Homo sapiens [1]; Homo sapiens, Blood
  IC50: 130 nM
Homo sapiens [2]; Homo sapiens
  IC50: 2 nM
[3]
  IC50: 3 nM
[4]
  concentration at 2 h: 8 µM
Rattus norvegicus [9]
  ED50: 0.15 mg/kg
[5]
  bioavailability: 98%
Rattus norvegicus [6]
  Functional activity in dyspnea model: 48%

## CC(C)(C)Sc1c(CC(C)(C)C(=O)O)n(Cc2ccc(Cl)cc2)c2ccc(OCc3nc4ccccc4o3)cc12
Homo sapiens [1]; Homo sapiens, Blood
  IC50: 2500 nM
Homo sapiens [2]; Homo sapiens
  IC50: < 7 nM
[3]
  IC50: 5 nM

## CC(C)(C)Sc1c(CC(C)(C)C(=O)O)n(Cc2ccc(Cl)cc2)c2ccc(OCc3ccc4ccccc4n3)cc12 [QUIFLAPON]
[10]
  concentration at 2 h: 2.5 µM
Rattus norvegicus [11]
  ED50: 0.51 mg/kg
Homo sapiens [2]; Homo sapiens
  IC50: 4 nM
Canis familiaris [12]
  inhibition in vivo at 2.5 µg/kg/min: 71%
[5]
  bioavailability: 24%
Canis familiaris [13]
  inhibition in vivo at 2.5 µg/kg/min: 94%
Rattus norvegicus [14]
  ED50: 0.15 mg/kg
Rattus norvegicus [6]
  Functional activity in dyspnea model: 51%

## CC(C)(C)Sc1c(CC(C)(C)C(=O)O)n(Cc2ccc(Cl)cc2)c2ccc(OCc3cc4ccccc4cn3)cc12
Homo sapiens [1]; Homo sapiens, Blood
  IC50: > 3000 nM
Homo sapiens [2]; Homo sapiens
  IC50: 3 nM
[3]
  IC50: 10 nM

## CC(C)(C)Sc1c(CC(C)(C)C(=O)O)n(Cc2ccc(Cl)cc2)c2ccc(OCc3cnccn3)cc12
Homo sapiens [1]; Homo sapiens, Blood
  IC50: 400 nM
Homo sapiens [2]; Homo sapiens
  IC50: 4 nM
[3]
  IC50: 7 nM

## CC(COc1ccc2c(c1)c(SC(C)(C)C)c(CC(C)(C)C(=O)O)n2Cc1ccc(Cl)cc1)c1ccccn1 (centres undefined)
Homo sapiens [1]; Homo sapiens, Blood
  IC50: 270 nM
Homo sapiens [2]; Homo sapiens
  IC50: 4 nM
[3]
  IC50: 8 nM

## CC(C)(C)Sc1c(CC(C)(C)C(=O)O)n(Cc2ccc(Cl)cc2)c2ccc(OCc3ccc4cccnc4n3)cc12
Homo sapiens [1]; Homo sapiens, Blood
  IC50: > 3000 nM
Homo sapiens [2]; Homo sapiens
  IC50: 6 nM
[3]
  IC50: 2 nM

## CC(Oc1ccc2c(c1)c(SC(C)(C)C)c(CC(C)(C)C(=O)O)n2Cc1ccc(Cl)cc1)c1ccc2ccccc2n1 (single isomer, unassigned; (-))
Homo sapiens [1]
  IC50: 362 nM
Rattus norvegicus [15]
  ED50: 1 mg/kg
Homo sapiens [2]
  IC50: 5 nM
[3]
  IC50: 7 nM
[4]
  concentration at 2 h: 4.2 µM
[5]
  bioavailability: 48%
Rattus norvegicus [6]
  Functional activity in dyspnea model: 45%

## CC(C)(C)Sc1c(CC(C)(C)C(=O)O)n(Cc2ccc(Cl)cc2)c2ccc(OCc3cscn3)cc12
Homo sapiens [1]; Homo sapiens, Blood
  IC50: 270 nM
Rattus norvegicus [16]
  ED50: 0.12 mg/kg
Homo sapiens [2]; Homo sapiens
  IC50: 3 nM
[3]
  IC50: 5 nM
[4]
  concentration at 2 h: 8 µM
[5]
  bioavailability: 98%
Rattus norvegicus [6]
  Functional activity in dyspnea model: 61%

## CC(C)(C)Sc1c(CC(C)(C)C(=O)O)n(Cc2ccc(Cl)cc2)c2cc(OCc3ccc4ccccc4n3)ccc12
[3]
  IC50: 428 nM

## CC(C)(C)Sc1c(CC(C)(C)C(=O)O)n(Cc2ccc(Cl)cc2)c2ccc(OCc3ccc4c(n3)CCCC4)cc12
Homo sapiens [1]; Homo sapiens, Blood
  IC50: 2890 nM
Homo sapiens [2]; Homo sapiens
  IC50: 3 nM
[3]
  IC50: 8 nM

## CC(C)(C)Sc1c(CC(C)(C)C(=O)O)n(Cc2ccc(Cl)cc2)c2ccc(/C=C/c3ccc4ccccc4n3)cc12
Homo sapiens [1]; Homo sapiens, Blood
  IC50: > 3000 nM
Homo sapiens [2]; Homo sapiens
  IC50: 12 nM
[3]
  IC50: 11 nM

## CC(C)(C)Sc1c(CC(C)(C)C(=O)O)n(Cc2ccc(Cl)cc2)c2ccc(OCc3cccnc3)cc12
Homo sapiens [1]; Homo sapiens, Blood
  IC50: > 3000 nM
Homo sapiens [2]; Homo sapiens
  IC50: 8 nM
[3]
  IC50: 59 nM

## CC(C)(C)Sc1c(CC(C)(C)C(=O)O)n(Cc2ccc(Cl)cc2)c2ccc(OCc3cccc(Cl)n3)cc12
Homo sapiens [1]; Homo sapiens, Blood
  IC50: 410 nM
Homo sapiens [2]; Homo sapiens
  IC50: 3 nM
[3]
  IC50: 8 nM
[4]
  concentration at 2 h: 3.5 µM
[5]
  bioavailability: 37%
Rattus norvegicus [6]
  Functional activity in dyspnea model: 34%

## CC(C)(C)Sc1c(CC(C)(C)C(=O)O)n(Cc2ccc(Cl)cc2)c2ccc(OCc3ccncc3)cc12
Homo sapiens [1]; Homo sapiens, Blood
  IC50: > 3000 nM
Homo sapiens [2]; Homo sapiens
  IC50: 6 nM
[3]
  IC50: 48 nM

## CC(C)(C)Sc1c(CC(C)(C)C(=O)O)n(Cc2ccc(Cl)cc2)c2ccc(OCc3ccc4cc(F)c(F)cc4n3)cc12
Homo sapiens [1]; Homo sapiens, Blood
  IC50: > 3000 nM
Homo sapiens [2]; Homo sapiens
  IC50: 7 nM
[3]
  IC50: 14 nM

## CC(C)(C)Sc1c(CC(C)(C)C(=O)O)n(Cc2ccc(Cl)cc2)c2ccc(OCc3ccnc4ccccc34)cc12
[3]
  IC50: 62 nM

## CC(Oc1ccc2c(c1)c(SC(C)(C)C)c(CC(C)(C)C(=O)O)n2Cc1ccc(Cl)cc1)c1ccc2ccccc2n1 (racemic)
Homo sapiens [1]
  IC50: 803 nM
Homo sapiens [2]
  IC50: 9 nM
[3]
  IC50: 16 nM

## CC(C)(C)Sc1c(CC(C)(C)C(=O)O)n(Cc2ccc(Cl)cc2)c2ccc(OCc3cccs3)cc12
Homo sapiens [1]; Homo sapiens, Blood
  IC50: > 3000 nM
Homo sapiens [2]; Homo sapiens
  IC50: 4 nM
[3]
  IC50: 70 nM

## CC(C)(C)Sc1c(CC(C)(C)C(=O)O)n(Cc2ccc(Cl)cc2)c2cccc(OCc3ccc4ccccc4n3)c12
[3]
  IC50: 85 nM

## CC(C)c1csc(COc2ccc3c(c2)c(SC(C)(C)C)c(CC(C)(C)C(=O)O)n3Cc2ccc(Cl)cc2)n1
Homo sapiens [1]; Homo sapiens, Blood
  IC50: > 3000 nM
Homo sapiens [2]; Homo sapiens
  IC50: 3 nM
[3]
  IC50: 13 nM

## CC(Oc1ccc2c(c1)c(SC(C)(C)C)c(CC(C)(C)C(=O)O)n2Cc1ccc(Cl)cc1)c1ccc2ccccc2n1 (stereo in doubt; 6)
Homo sapiens [1]
  IC50: > 3000 nM
Homo sapiens [2]
  IC50: 32 nM
[3]
  IC50: 116 nM

## COc1ccc2nc(COc3ccc4c(c3)c(SC(C)(C)C)c(CC(C)(C)C(=O)O)n4Cc3ccc(Cl)cc3)sc2c1
Homo sapiens [1]; Homo sapiens, Blood
  IC50: 670 nM
Homo sapiens [2]; Homo sapiens
  IC50: 8 nM
[3]
  IC50: 73 nM

## CC(C)(C)Sc1c(CC(C)(C)C(=O)O)n(Cc2ccc(Cl)cc2)c2ccc(OCc3ccc4cnccc4n3)cc12
Homo sapiens [1]; Homo sapiens, Blood
  IC50: 980 nM
Homo sapiens [2]; Homo sapiens
  IC50: 3 nM
[3]
  IC50: 2 nM

## C[C@H](COc1ccc2c(c1)c(SC(C)(C)C)c(CC(C)(C)C(=O)O)n2Cc1ccc(Cl)cc1)c1ccccn1
Homo sapiens [1]; Homo sapiens, Blood
  IC50: 470 nM
Homo sapiens [2]; Homo sapiens
  IC50: 3 nM
[3]
  IC50: 12 nM

Source: ChEMBL document CHEMBL1131844, “Substituted indoles as potent and orally active 5-lipoxygenase activating protein (FLAP) inhibitors” (Bioorg Med Chem Lett, 1999)
